Measured values: patent publication US12195419B2, “Glutamine antagonists and uses thereof” (The Johns Hopkins University, priority 2017, dated 2025)
Read-outs that look alike come from different tables or passages of the source.

Assays:
P493B lymphoma cells [1] = experiment: Human tumor cell to plasma partitioning assay, single time-point (compounds 1, 7, 12, 16 and DON); type: cell-based; details: 20 μM; for DON release in plasma: human plasma containing P493B cells, 1 h incubation
Description: Compounds 1, 7, 12 and 16 were evaluated for their ability to be taken up in tumor cells and cleaved to give DON. The experimental conditions are described below.
(§1) Tumor cell to plasma partitioning assay was conducted in P493B lymphoma cells (obtained from Dr. Chi Dang, Abramson Cancer Center, University of Pennsylvania, Philadelphia, PA; (REF, Nature 458, 762-765, 2009). In brief, cells were grown in 150 cm^2 cell T-flasks (Falcon™, USA) with RPMI 1640, 1× L-glutamine medium (Corning™ Cellgro™, USA) supplemented with 10% (v/v) FBS (Gibco™, USA), and 1% streptomycin and gentamycin (Gibco™, USA). All cells were incubated at 37° C., in a humidified atmosphere with 5% CO2. The cell confluency was monitored visually using an Axiovert 25 optical microscope equipped with an 3CCD digital camera. Upon confluency, cell suspension was collected and centrifuged at 1000 rpm for 5 min at 25° C. to collect the cell pellet. The supernatant media was decanted, the cell pellet was re-suspended in 20 mL of DPBS (Gibco™, USA), and maintained at 37° C. in order to remove the media traces.
The cell count was determined using an automated cell counter (Bio-Rad, USA) following a 1:1 dilution of an aliquot with 0.4% trypan blue solution (Bio-Rad, USA). The cell suspension in DPBS was centrifuged at 1000 rpm for 5 min at 25° C. to collect the cell pellet. The supernatant DPBS was decanted and the cell pellets were resuspended in human plasma (Innovative Research, USA) to obtain a cell density of 10 million cells/mL of plasma. For analysis of cell partitioning cell-plasma suspension, 1 ml, was pre-incubated at 37° C. for 5 min, following which, compounds were spiked for a final concentration of 20 μM and re-incubated at 37° C. for 1 h. Following incubation, the cell suspension was centrifuged at 10000 rpm for 10 min at 4° C. Supernatant plasma obtained after centrifugation was collected and stored at −80° C. for intact compound and DON analysis. The cell pellet was washed once with ice cold DPBS, followed by centrifugation and stored at −80° C. for intact prodrug and/or DON analysis by LC-MS/MS.
For quantification of DON and intact compound, cell pellets were weighed and suspended in 50 μL of water. To the cell suspension, ice cold methanol with internal standards (losartan: 0.5 μM and glutamate D5: 10 μM) were added in a 5:1 ratio of solvent to cell suspension. The cell samples were vortexed, mixed for 30 sec and centrifuged at 10,000 rpm for 10 min at 4° C. For intact compound bioanalysis, 50 μL of the supernatant obtained after centrifugation was diluted with 50 μL water and transferred to a 250 μL polypropylene vial sealed with a Teflon cap. DON bioanalysis was performed following dabsyl chloride derivatization method with minor modifications (see, Rais et al., 2016; Nedelcovych et al., 2017). Briefly, 200 μL of the supernatant was collected in a separate tube and dried at 45° C. under vacuum for 1 h. To each tube, 50 μL of 0.2 M sodium bicarbonate buffer (pH 9.0) and 100 μL dabsyl chloride stock was added. […] The standard curve for DON quantification in the cell pellet was prepared using naïve P493B cells diluted with water to the equivalent ratio as that of sample.
Briefly, DON was analyzed on a Dionex ultra high-performance system consisting of an analytical pump, and an autosampler coupled with Q Exactive Focus orbitrap mass spectrometer (Thermo Fisher Scientific Inc., Waltham MA). […]

[2] = Dog pharmacokinetic study of compound #2 (IV infusion or SC); type: in vivo; details: intact #2 in plasma, 0.2 mg/kg DON equivalent, male beagle dog; for AUC(0-t): read-out: Intact compound AUC0-t
Description: The dog pharmacokinetic study was conducted in accordance with the guidelines recommended in Guide for the Care and Use of Laboratory Animals and was approved by the Absorption Systems (San Diego, CA) Institutional Animal Care and Use Committee. Compound #2 was administered to male beagle dogs (n=1/group) as a bolus subcutaneous dose or infused over 1 h at a dose of 0.2 mg/kg DON equivalent. Blood samples were collected from the jugular vein (˜1 mL) via direct venipuncture at 0 min, 5 min (IV only), 15 min, 1 h, 2 h, 4 h, 8 h, and 24 h, post dose, placed into sodium heparin tubes, and maintained on wet ice until processing. Blood samples were centrifuged at a temperature of 4° C., at 3000× g, for 5 minutes. Plasma was collected in tubes and flash frozen. Samples were stored in a freezer set to maintain −60° C. to −80° C. until bioanalysis as described previously (see, Rais et al., 2016; Nedelcovych et al., 2017).

P493B tumor cells = experiment: Time dependent tumor cell to plasma partitioning of compound 7; type: cell-based, human
Description: as §1
The cell count was determined using an automated cell counter (Bio-Rad, USA) following a 1:1 dilution of an aliquot with 0.4% trypan blue solution (Bio-Rad, USA). The cell suspension in DPBS was centrifuged at 1000 rpm for 5 min at 25° C. to collect the cell pellet. The supernatant DPBS was decanted and the cell pellets were resuspended in human plasma (Innovative Research, USA) to obtain a cell density of 10 million cells/mL of plasma. […]

[3] = Compound 7 dog pharmacokinetic study (SC); type: in vivo; details: beagle dog plasma, actual dose 2.6 mg/kg (DON eq. 0.8 mg/kg)
From the text: Compound 7 was administrated to a beagle dog subcutaneously. FIG. 4C is a line graph showing its plasma pharmacokinetics in the dog.

P493B lymphoma cells [4] = experiment: Cell proliferation assay (CellTiter 96 AQueous); type: cell-based, human; details: for EC50: Homo sapiens, 72 h incubation, read-out: EC50 (cell viability)
Description: The cell proliferation assay was performed using the CellTiter 96® AQueous one solution cell proliferation reagent following the manufacturers' instruction (Promega, USA). Briefly, P493B lymphoma cells were plated in 96 well plates at a density of 20,000 cells/well in a final volume of 100 μL growth media. Test compound stocks were made in DMSO and were added to cells in a 1:10 serial dilution with a final concentration of 0.2% DMSO. Cells were allowed to proliferate for 72 h in the presence of test compounds. Thereafter, 20 μL of CellTiter 96™ AQeous (Promega #3580) was added per well and incubated for 2 h. Absorbance was measured at 490 nm.
DON and compound 7 were incubated with P493B lymphoma cells for 72 h, and cell viability was measured.

With `CC(=O)NCCCC[C@H](NC(=O)[C@H](Cc1c[nH]c2ccccc12)NC(C)=O)C(=O)N[C@@H](CCC(=O)C=[N+]=[N-])C(=O)OC(C)C` (stereo in doubt) [Compound 12, Isopropyl 2-(6-acetamido-2-(2-acetamido-3-(1H-indol-3-yl)propan-amido)hexanamido)-6-diazo-5-oxohexanoate] the “DON release in plasma” value (P493B lymphoma cells [1]) was “minimal DON release”.

In the case of `CC(=O)NCCCC[C@H](NC(=O)[C@@H]1Cc2ccccc2CN1C(C)=O)C(=O)N[C@@H](CCC(=O)C=[N+]=[N-])C(=O)OC(C)C` (stereo in doubt) [Compound 16, Isopropyl 2-(6-acetamido-2-(2-acetyl-1,2,3,4-tetrahydroisoquinoline-3-carboxamido)hexanamido)-6-diazo-5-oxohexanoate], the “DON release in plasma” value (P493B lymphoma cells [1]) is reported as “minimal DON release” and the “DON release in tumor cells (tumor cell DON concentrations)” value (P493B lymphoma cells [1]; human plasma with 10 million P493B cells, 37° C., 1 h, compared to DON) is reported as “minimal release”.

In the case of `CC(=O)NCCCC[C@H](NC(=O)OC(C)(C)C)C(=O)N[C@@H](CCC(=O)C=[N+]=[N-])C(=O)OC(C)C` [Compound 1, Isopropyl 2-(6-acetamido-2-((tert-butoxycarbonyl)amino)-hexanamido)-6-diazo-5-oxohexanoate], the “DON release in plasma” value (P493B lymphoma cells [1]) is reported as “minimal DON release”.

For `CC(=O)NCCCC[C@H](NC(=O)OCC1c2ccccc2-c2ccccc21)C(=O)N[C@@H](CCC(=O)C=[N+]=[N-])C(=O)OC(C)C` [Compound 2, Isopropyl 2-(2-((((9H-fluoren-9-yl)methoxy)carbonyl)amino)-6-acet-amidohexanamido)-6-diazo-5-oxohexanoate], the Cmax ([2]; IV infusion over 1 h) was 6570 nM, the Tmax ([2]; IV infusion over 1 h) was 0.08 h and the AUC(0-t) ([2]; IV infusion over 1 h) was 7.45 µM·h. For the same compound, the Cmax ([2]; SC bolus) was 470 nM, the Tmax ([2]; SC bolus) was 4 h and the AUC(0-t) ([2]; SC bolus) was 2.6 µM·h.

For `CC(=O)NCCCC[C@H](NC(=O)C12CC3CC(CC(C3)C1)C2)C(=O)N[C@@H](CCC(=O)C=[N+]=[N-])C(=O)OC(C)C` [Compound 7], the “DON release in plasma” value (P493B lymphoma cells [1]) was “minimal DON release”, the “intact compound observed in tumor cells” value (P493B tumor cells) was under 1% and the AUC ([3]; N = 1, read-out: AUC Cpd 7) was 2.1 µM·h. The Cmax ([3]; N = 1, read-out: Cmax Cpd 7) was 640 nM, the “improvement of tumor cell killing vs DON” value (P493B lymphoma cells [4]; 72 h, EC50 compared to DON) was “two-fold” and the EC50 (P493B lymphoma cells [4]) was 5 ± 0.12 µM.

`[N-]=[N+]=CC(=O)CC[C@H](N)C(=O)O` [DON, 6-diazo-5-oxo-L-norleucine, reference compound] gave an EC50 (P493B lymphoma cells [4]) of 10 ± 0.11 µM.
